Experimental data published in patent publication US20250243219A1, “MACROCYCLIC COMPOUNDS AND USES THEREOF” (Cypralis Limited, priority 2022, published 2025).

How the values were obtained:
cyclophilin D = cyclophilin D (Homo sapiens (Human), UniProt P30405); test: Functional peptidyl prolyl isomerase (PPIase) spectrophotometric assay, cyclophilin D; format: biochemical; conditions: second value of CypA/D cell; read-out: Ki CypD
From the text: (§1) Cyclophilins are enzymes that catalyse the cis-trans isomerisation of peptide bonds to the amino acid proline. This event is important in many biological processes, including protein folding and signal transduction. […] The method to measure this activity and its inhibition is similar to that described by Jankowski (Analytical Biochemistry, 252, 2, 299-307 (1997)). The assay measures the cis to trans isomerisation of a peptide substrate catalysed by a PPlase enzyme using a UV/Vis spectrophotometer. This assay is a manual single cuvette-based assay. A first order rate equation is fitted to the absorbance data to obtain a rate constant. The catalytic rate is calculated from the enzymatic rate minus the background rate. The Ki (the concentration required to produce half maximum inhibition) for an inhibitor is obtained from the rate constant plotted against the inhibitor concentration. Typically, a 6-point dose response curve is obtained from duplicates and a Ki determined. Data are given in Table 5 as Ki [nM] for cyclophilins A and D, expressed in column 2 of Table 5 as Ki (cypA)/Ki (cypD).

[1] = tested on: permeabilised HepG2 cells; test: Calcium retention capacity (CRC) assay in permeabilised HepG2 cells (MPTP opening); format: cell-based, human; set-up: CRC [10 μM]: unit not given here; conditions: compound at 10 μM; for CRC [10 μM]: digitonin permeabilised HepG2 cells; for CRC [10 μM] (ratio vs CsA): normalised to cyclosporin A, value in brackets
Procedure: The use of permeabilised cells means that inhibitory compounds that may not normally enter non-permeabilised cells are more likely to be active.
The calcium retention capacity (CRC) is a measure of the capability of mitochondria to retain calcium, primarily in the form of calcium phosphates, in the mitochondrial matrix.
In a CRC assay, the calcium indicator Calcium Green-5N (InVitrogen) is utilized. […] The assay is carried out in HepG2 (human hepatocellular carcinoma) cells which are digitonin permeabilized. Trains of calcium pulses (typically 5 μM additions) are added which results in a sudden increase in fluorescence which is then reduced by mitochondrial buffering. The cells will reach a point at which the calcium addition is no longer buffered, an indication that the MPTP has opened (mitochondrial permeability transition).
The experiment is performed with and without inhibitor. A compound that acts to inhibit the mitochondrial pore opening will result in a greater requirement for calcium to reach the transition point. The results are normalised to a positive control (cyclosporin A) in each experiment. The results are shown in column 3 of Table 5 as CRC [10 μM] (ratio vs CsA). The method of digitonin permeabilised whole cell CRC assay is similar to that used by Chiara et al. (PLoS One, March, 3, 3, e1852 (2008)).

cyclophilin A = cyclophilin A (Homo sapiens (Human), UniProt P62937); test: Functional peptidyl prolyl isomerase (PPIase) spectrophotometric assay, cyclophilin A; format: biochemical; conditions: first value of CypA/D cell
Chain of cyclophilin A (P62937 whole entry, species assumed): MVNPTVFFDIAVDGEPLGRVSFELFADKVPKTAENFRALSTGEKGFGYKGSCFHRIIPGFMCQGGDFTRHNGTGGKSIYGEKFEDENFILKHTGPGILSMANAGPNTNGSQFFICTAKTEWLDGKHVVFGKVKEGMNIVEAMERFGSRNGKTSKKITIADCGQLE
From the text: as §1

SH-SY5Y cells = test: Thapsigargin treated cell death assay in SH-SY5Y cells; format: cell-based, human; conditions: compound at 10 μM, positive = protection from cell death, negative = compound toxicity
From the text: Thapsigargin raises intracellular free calcium (Ca^2+) by potently inhibiting the endoplasmic reticulum Ca-ATPase, which sequesters Ca^2+ from the cytosol. The increased cytosolic Ca^2+ concentration is buffered by mitochondria by exchanging Ca^2+ for K, leading to depolarisation in the inner mitochondrial membrane and permeability transition.
The thapsigargin treated Jurkat cell death assay is a homogeneous 96 well plate based assay for cell death, instigated by the opening of the mitochondrial permeability transition pore (MPTP). The addition of thapsigargin to Jurkat cells results in an influx of calcium, the increase in intracellular calcium will initially be buffered by the mitochondria, but eventually the increasing calcium concentration will result in the opening of the MPTP, resulting in cell death.
CellTox™ Green is a dye which is unable to enter the cell until cell death leads to the loss of membrane integrity. Once this happens the CellTox™ Green enters the cell, binds to the cell's DNA and emits a fluorescent signal. […] Unless otherwise stated, the assay is typically run using a range of three compound concentrations of 1, 3 and 10 μM in triplicate and is read kinetically over a period of 24 hours. Compounds are added 30 minutes before the addition of thapsigargin. Compound only controls and positive control, cyclosporin A (CsA) (3 and 10 μM) are also included in the assay. Results are typically calculated at the 8 hour time point and the kinetic data is also reported.
The assay is carried out as described for the Jurkat cells but using the SH-SY5Y (human neuroblastoma) cell line instead of Jurkat cells. The results are shown in the fourth column of Table 5 (SY5Y [10 μM]% recovery). Positive numbers indicate protection from cell death, negative numbers indicate compound toxicity.

Chain of cyclophilin D (P30405 30-207, species assumed): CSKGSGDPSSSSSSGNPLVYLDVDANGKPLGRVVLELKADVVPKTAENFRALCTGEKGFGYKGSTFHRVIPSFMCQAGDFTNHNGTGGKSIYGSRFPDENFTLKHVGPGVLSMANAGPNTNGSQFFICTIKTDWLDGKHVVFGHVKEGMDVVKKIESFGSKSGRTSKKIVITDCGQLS

SMILES | Ki (cyclophilin D) [µM] | CRC [10 μM] [1] | CRC [10 μM] (ratio vs CsA) [1] | Ki (cyclophilin A) [µM] | SYSY [10 μM] % recovery (SH-SY5Y cells) [%] | CRC [10 μM] ([1]; listed as 41) | CRC [10 μM] (ratio vs CsA) ([1]; listed as 41) | SYSY [10 μM] % recovery (SH-SY5Y cells; listed as 41) [%] | SYSY [10 μM] % recovery (SH-SY5Y cells; listed as 31) [%]
CC(C)[C@@H]1OC(=O)C2(/C=C/c3ccc4ccc(nc4c3)N(C)NC(=O)[C@@H]3CCCN(N3)C(=O)[C@H](C)NC1=O)CCCC2 [Compound (21)] | 0.0061 | 32.5 | 0.93 | 0.0025 | 33.8 | – | – | – | –
CC(C)[C@@H]1OC(=O)C(C)(C)/C=C/c2ccc3ccc(nc3c2)N(C)NC(=O)[C@@H]2CCCN(N2)C(=O)[C@H](Cc2ccccc2)NC1=O [Compound (76)] | 0.0063 | 33.9 | 0.97 | 0.0056 | 27.6 | – | – | – | –
C[C@@H]1NC(=O)[C@H](C[C@@H]2CCCNC2)OC(=O)C(C)(C)/C=C/c2ccc3ccc(nc3c2)N(C)NC(=O)[C@@H]2CCCN(N2)C1=O [Compound (57)] | 0.0076 | 15 | 0.75 | 0.0078 | 48.48 | – | – | – | –
CC(C)[C@@H]1OC(=O)C(C)(C)/C=C/c2ccc3ccc(nc3c2)N(C)NC(=O)[C@@H]2CCCN(N2)C(=O)[C@H](CCCCNCc2ccc3ccccc3c2)NC1=O [Compound (61)] | 0.00425 | 20 | 0.78 | 0.00185 | 35 | – | – | – | –
C[C@@H]1NC(=O)[C@H](CN2CCNCC2)OC(=O)C(C)(C)/C=C/c2ccc3ccc(nc3c2)N(C)NC(=O)[C@@H]2CCCN(N2)C1=O [Compound (48)] | 0.011 | 10 | 0.5 | 0.026 | 46 | – | – | – | –
C[C@@H]1NC(=O)[C@H](CC2CCCNC2)NC(=O)C(C)(C)/C=C/c2ccc3ccc(nc3c2)N(C)NC(=O)[C@@H]2CCCN(N2)C1=O (stereo partly shown) [Compound (35)] | 1.1 | 10 | 0.41 | 1.1 | 37 | – | – | – | –
C[C@@H]1NC(=O)C(Cc2ccc(C(=O)O)cc2)OC(=O)C(C)(C)/C=C/c2ccc3ccc(nc3c2)N(C)NC(=O)[C@@H]2CCCN(N2)C1=O (single isomer, unassigned) [Compound (41)] | 0.22 | – | – | 0.03 | – | 10 | 0.67 | 0 | –
CC(C)[C@@H]1OC(=O)[C@](C)(Cc2ccccc2)/C=C/c2ccc3ccc(nc3c2)N(C)NC(=O)[C@@H]2CCCN(N2)C(=O)[C@H](C)NC1=O [Compound (16)] | 0.014 | 25 | 0.83 | 0.0017 | 62 | – | – | – | –
CC(C)[C@@H]1OC(=O)C(C)(C)/C=C/c2ccc3ccc(nc3c2)N(C)NC(=O)[C@@H]2CCCN(N2)C(=O)[C@H](C2CC2)NC1=O [Compound (80)] | 0.022 | 25 | 1.00 | 0.004 | 29.2 | – | – | – | –
CC(C)[C@@H]1OC(=O)C(C)(C)/C=C/c2ccc3ccc(nc3c2)N(C)NC(=O)[C@@H]2CCCN(N2)C(=O)[C@H](CC2CCN(C)CC2)NC1=O [Compound (73)] | 0.042 | 15 | 0.75 | 0.011 | 43 | – | – | – | –
CC(C)[C@@H]1NC(=O)C(C)(C)/C=C/c2ccc3ccc(nc3c2)N(C)NC(=O)[C@@H]2CCCN(N2)C(=O)[C@H](C)NC1=O [Compound (22)] | 0.027 | 25 | 0.83 | 0.013 | 4 | – | – | – | –
C[C@@H]1NC(=O)[C@@H](CC2CCCNC2)OC(=O)C(C)(C)/C=C/c2ccc3ccc(nc3c2)N(C)NC(=O)[C@@H]2CCCN(N2)C1=O (single isomer, unassigned) [Compound (31)] | 0.18 | 10 | 0.33 | 0.79 | – | – | – | – | 12
CC(C)[C@@H]1CC(=O)C(C)(C)/C=C/c2ccc3ccc(nc3c2)N(C)NC(=O)[C@@H]2CCCN(N2)C(=O)[C@H](C)NC1=O [Compound (25)] | 0.0062 | 20 | 0.8 | 0.0175 | 26.2 | – | – | – | –
CC(C)[C@@H]1OC(=O)C(C)(C)/C=C/c2ccc3ccc(nc3c2)N(C)NC(=O)[C@@H]2CCCN(N2)C(=O)[C@H](CCC(=O)NCc2cnn(C)c2)NC1=O [Compound (68)] | 0.0099 | 25 | 0.83 | 0.016 | 37 | – | – | – | –
CNC(=O)c1ccc(C[C@@H]2OC(=O)C(C)(C)/C=C/c3ccc4ccc(nc4c3)N(C)N(C)C(=O)[C@@H]3CCCN(N3)C(=O)[C@H](C)NC2=O)cc1 [Compound (12)] | 0.049 | 15 | 0.75 | 0.24 | 25 | – | – | – | –
C[C@@H]1NC(=O)[C@H](C[C@H]2CCCN(C)C2)OC(=O)C(C)(C)/C=C/c2ccc3ccc(nc3c2)N(C)NC(=O)[C@@H]2CCCN(N2)C1=O [Compound (37)] | 0.16 | 5 | 0.33 | 0.15 | 41 | – | – | – | –
C[C@@H]1NC(=O)[C@H](Cc2cccc(N)c2)OC(=O)C(C)(C)/C=C/c2ccc3ccc(nc3c2)N(C)NC(=O)[C@@H]2CCCN(N2)C1=O [Compound (50)] | 0.0016 | 20 | 1.00 | 0.0024 | 25 | – | – | – | –
